Patent US9675580B2, “Method of treatment for enhancing exercise performance” (priority 2012, dated 2017)

Legend:
PPAR-δ gene = test: Real time PCR gene expression in mouse myotube: PPAR-δ; type: cell-based; settings: C2C12 myotubes, 10, 30 and 100 μM, 16 hours, corrected with β-actin, FIG. 4C
Experimental: (§1) Mouse myoblasts were purchased from the Korean Cell Line Bank (KCLB), and base sequences of primers for β-actin, SIRT-1, PGC-1α, NRF-1 and PPAR-δ genes were as follows:
(§2) 1×10^7 C2C12 (mouse myoblasts) differentiated into myotubes using 2% horse serum […]. The mouse myotube was treated with myricetin by concentration and cultured for 16 hours, RNA was extracted from the myotube using TRizol, and then cDNA was synthesized through reverse transcription PCR (RT-PCR).
(§3) Real time PCR was performed using β-actin as a control and the primers for respective genes (95° C. for 3 minutes, <95° C. for 10 seconds, 60° C. for 10 seconds, 72° C. for 30 seconds>−39 cycles, 95° C. for 10 seconds, 65° C. for 5 seconds). The PGC-1α, NRF-1, PPAR-δ, and SIRT-1 were corrected with the β-actin, and the resulting value was obtained.

NRF-1 gene = test: Real time PCR gene expression in mouse myotube: NRF-1; type: cell-based; settings: C2C12 myotubes, 10, 30 and 100 μM, 16 hours, corrected with β-actin, FIG. 4B
Experimental: as §1, §2, §3

PGC-1α gene = test: Real time PCR gene expression in mouse myotube: PGC-1α; type: cell-based; settings: C2C12 myotubes, 10, 30 and 100 μM, 16 hours, corrected with β-actin, FIG. 4A
Experimental: as §1, §2, §3

SIRT-1 gene = test: Real time PCR gene expression in mouse myotube: SIRT-1; type: cell-based; settings: C2C12 myotubes, 10, 30 and 100 μM, 16 hours, corrected with β-actin, FIG. 4D
Experimental: as §1, §2, §3

ICR mice [1] = test: Treadmill run to exhaustion (endurance exercise capacity); type: in vivo, mouse; settings: 50 mg/kg oral daily for two weeks, vs phosphate buffered saline control, p<0.0005, FIG. 1
Experimental: Ten 8-week-old ICR mice were purchased from KOATECH, precultured for 1 week, and then divided into two groups, each group having five mice. The first group was set up as a negative control by administering phosphate buffered saline, and to the second group, myricetin was orally administered daily at a concentration of 50 mg/kg for two weeks. To measure a change in endurance exercise capacity due to myricetin, the animals in the negative control and the myricetin-administered group were run on a treadmill (Panlab&Harvard, Spain). An exercise performance protocol was configured to make the mice run until exhaustion at 25 cm/sec for 20 minutes, 30 cm/sec for 20 minutes, 33 cm/sec for 20 minutes, 36 cm/sec for 20 minutes and 36 cm/sec for 15 minutes with a gradient of 5°, and 30 cm/sec for 15 minutes and 41 cm/sec with a gradient of 10°. To adapt the mice to running on the treadmill, the day before the experiment, they were run at 27 cm/sec for 10 minutes with a gradient of 5°. The mice were not fed for two hours before the running on the treadmill on the day of the experiment, and then the maximum exercise capacity of the experimental animals was measured after the running on the treadmill. […]

[2] = Change in body weight of SD rats; type: in vivo, rat; settings: 50 mg/kg for 5 days, 225 g before administration, control group 285 g, FIG. 5A
Experimental: 7-week-old SD rats were purchased from KOATECH, precultured for 1 week, and randomly divided into two groups, each group having 5 rats. First, 50 mg/kg of myricetin was administered into the test group, and phosphate buffered saline was administered into the control group for 5 days. A change in body weight was measured using an electric measure (CAS, China). Before administration, the body weights of the rats in each group were the same as 225 g on average, but after the end of the experiment, the body weights of the rats in the control group were 285 g on average, and the body weights of the rats in the myricetin-administered group were 275 g on average (FIG. 5A).

[3] = Daily food intake of SD rats (action metabolism meter); type: in vivo, rat; settings: 50 mg/kg for 5 days, FIG. 5B
Experimental: 7-week-old SD rats were purchased from KOATECH, precultured for 1 week, and randomly divided into two groups, each group having 5 rats. First, 50 mg/kg of myricetin was administered into the test group, and phosphate buffered saline was administered into the control group for 5 days. The investigation of food intake was performed by automatically measuring the daily food intake of the phosphate buffered saline-administered mouse and the myricetin-administered mouse using an action metabolism meter (Panlab&Harvard, Spain). The average food intake was determined as an average food intake of each of the five rats in one group.

ICR mice [4] = test: Rotarod test (sensorimotor function); type: in vivo, mouse; settings: 50 mg/kg oral daily for 2 weeks, 4 to 40 rpm, vs negative control, p<0.005, FIG. 3
Experimental: To confirm an effect of myricetin on a sensorimotor function of a mouse, 8-week-old ICR mice were purchased from KOATECH, precultured for 1 week, and divided into two groups, each group having 5 mice. As described in Example 1, the experimental animals were divided into two groups, and then the first group was determined as a negative control, and to the second group, myricetin was orally administered daily at a concentration of 50 mg/kg using a 1 ml syringe for 2 weeks.
To measure an effect of myricetin on the sensorimotor function, a rotarod test (Panlab&Harvard, Spain) was performed on the mice in the control group and the myricetin-administered group. The rotarod test was performed to measure motor coordination (exercise adaptation) and a sense of balance of the animal (Michel Pratte et al., Behavioural brain research 216:313-320, 2011; Medina R. et al., FEBS Lett. 180(1): 77-80, 1985).
A tail of the mouse was put on a rotarod, and a speed of the rotarod was increased from 4 to 40 rpm within 5 minutes by an increase of 4 rpm at 30-second intervals. The time during which the mouse stayed on the rotarod was measured. The experiment was repeated five times, and the time during which the mouse stayed the longest on the rotarod was used as a result value.

ICR-series mice = test: Grip strength test (maximum muscle strength); type: in vivo, mouse; settings: 50 mg/kg oral daily for two weeks, vs negative control, p<0.005 / p<0.00005, FIGS. 2A and 2B
Experimental: To measure an effect of myricetin on enhancing endurance exercise capacity of a mouse, ten 8-week-old ICR-series mice having a body weight of 30±5 g were used. As described in Example 1, the experimental animals were divided into two groups. The first group was determined as a negative control, and to the second group, myricetin was orally administered daily at a concentration of 50 mg/kg for two weeks. To measure a change in the maximum strength of a muscle due to myricetin, a grip strength test (Bioseb, France) was performed on the animals in the control group and the myricetin-administered group. Maximum grip strengths of the front paws and rear paws were measured by pulling a tail of the mouse backward while the mouse grabbed a grip strength tester. The grip strength was measured three times, and an average value was used.

O=c1c(O)c(-c2cc(O)c(O)c(O)c2)oc2cc(O)cc(O)c12 [myricetin, 3,5,7-trihydroxy-2-(3,4,5-trihydroxyphenyl)-4-chromenone]
expression of PPAR-δ compared to the control group (PPAR-δ gene): increased two to three times | expression of NRF-1 compared to the control group (NRF-1 gene): increased two to three times | expression of PGC-1α compared to the control group (PGC-1α gene): increased two to three times | expression of SIRT-1 compared to the control group (SIRT-1 gene): increased two to three times | time run on the treadmill until exhaustion (maximum exercise capacity) (ICR mice [1]): longer | body weight on average after the end of the experiment [2]: 275 g | average daily food intake vs phosphate buffered saline-administered group [3]: smaller | time during which the mouse stayed on the rotarod (ICR mice [4]): longer | maximum grip strength of front paws and rear paws (maximum muscle strength) (ICR-series mice): increased
